Reference: PMC5034043 (The Journal of Biological Chemistry, 2016)
Where two headings read alike, the source gives them in different places.

Test system: T1, synaptosomal proteome
T1 construct: from tissue; host or cells: brain synaptosomes of male C57/B6 mice
Format: binding, mouse
Protocol: Synaptosomes were resuspended to 1 mg of protein/ml in HEPES buffer medium (in mM: 140 NaCl, 5 KCl, 5 NaHCO3, 1.2 NaH2PO4, 1 MgCl2, 10 glucose, and 10 HEPES (pH 7.4)). […] The samples were allowed to equilibrate for 5 min before being transferred to a parafilm-sealed 1-mm path length quartz cuvette. The sample was then irradiated for 20 min at a peak bandwidth of 350 nm (Rayonet RPR-3500 lamp) ∼6 cm from the light source. Non-irradiated samples were left in the dark at ambient temperature (22–25 °C) for 20 min. All remaining procedures were conducted with restricted light exposure.
To 750 μg of photolabeled or control synaptosome samples, 40 μl of 10% SDS and 2 μl of 5 mM DTT in water were added. Samples were then vortexed, heated for 10 min at 65 °C, and then briefly cooled. Final concentrations of 150 μM azide-biotin (Click Chemistry Tools), 2 mM tris(3-hydroxypropyltriazolylmethyl)amine (Sigma), 1 mM ascorbic acid (Sigma), and 1 mM CuSO4·5H2O (Sigma) were added to each sample and vortexed vigorously. The samples were left in the dark at ambient temperature (22–25 °C) for 1 h with mild agitation. Directly to each sample 4× volume chilled methanol, 1.5× chilled chloroform, and 3× chilled double distilled H2O were added. Samples were vortexed vigorously and centrifuged at 1,400 × g for 30 min at 4 °C. Both liquid layers were carefully removed, and the protein pellet was washed with 2 ml of 1:1 (v/v) chilled methanol/chloroform. Samples were centrifuged at 3,500 × g for 30 min at 4 °C. Protein pellets were briefly air-dried before further processing.
750 μg of biotin-conjugated protein sample was resuspended in 500 μl of 25 mM NH4HCO3 and 6 M urea in water. Next, 150 μl of 5% Triton X-100 in water, 50 μl of 10% SDS in water, and 1.5 μl of 0.5 M DTT were added. The samples were heated for 15 min at 65 °C. After briefly cooling, 14 μl of 0.5 M iodoacetamide in water was added, and the sample was left in the dark for 45 min. […] The supernatant was diluted to 4 ml with PBS, and 2 ml of PBS containing 100 μl of 50% streptavidin-agarose resin (Thermo Scientific) was added. Biotinylated proteins within the sample were captured over resin overnight at 4 °C with mild agitation. The resin was first washed with 6 ml of 1% SDS in PBS, and then 7 ml of 0.1 M urea in PBS followed by 10 ml of PBS. The resin underwent a final wash with 0.9 ml of 50 mM Tris-HCl and 1 mM CaCl2 in water (pH 8.0) and then resuspended in 200 μl of 50 mM Tris-HCl, 1 mM CaCl2 in water (pH 8.0), and 2 μg of porcine sequencing grade trypsin (Promega). Samples were digested overnight at 37 °C. Samples were then centrifuged at 2,000 × g for 4 min, and digest supernatant was decanted. Beads were washed in 100 μl of PBS centrifuged at 5,200 × g for 5 min, and the wash was combined with the digest supernatant. To the combined sample, trifluoroacetic acid (TFA) was added to 0.4% (v/v) or until pH <2. The sample was desalted with Oasis C18 10-mg columns (Waters) as described previously ([66]). The eluted sample was dried by speed vac and resuspended in 0.1 M HEPES buffer (pH 8.5). […] Appropriate corresponding TMTsixplex^TM-labeled samples were pooled and dried by speed vac. The combined samples were resuspended in 0.5% acetic acid in water and pH-corrected with acetic acid until pH was <2. 40 μg of protein was desalted with C18 stage tips prepared in-house and dried by speed vac.
Samples were resuspended in 10 mM KH2PO4 (pH 2.6), 30% acetonitrile (v/v) in water, and fractionated by off-line strong cation exchange chromatography prior to mass spectrometry (MS) analysis similar to as reported previously ([66]). The full synaptosome proteome control was prepared similarly without TMTsixplex^TM labeling.
All TMT samples were analyzed with three-stage mass spectrometry (MS3) TMTsixplex^TM quantification workflow as described previously ([34]).

[1] = protein P26049 Gamma-aminobutyric acid receptor subunit alpha-3 (Gabra3)
[2] = protein P27671 Ras-specific guanine nucleotide-releasing factor 1 (Rasgrf1)
[3] = protein P35762 CD81 antigen (Cd81)
[4] = protein P50571 Gamma-aminobutyric acid receptor subunit beta-1 (Gabrb1)
[5] = protein P56480 ATP synthase subunit beta, mitochondrial (Atp5b)
[6] = protein P56564 Excitatory amino acid transporter 1 (Slc1a3)
[7] = protein P60879 Synaptosomal-associated protein 25 (Snap25)
[8] = protein P61264 Syntaxin-1B (Stx1b)
[9] = protein P62204 Calmodulin (Calm1)
[10] = protein P63328 Serine/threonine-protein phosphatase 2B catalytic subunit alpha isoform (Ppp3ca)
[11] = protein Q2TPA8 Hydroxysteroid dehydrogenase-like protein 2 (Hsdl2)
[12] = protein Q3TXX4 Vesicular glutamate transporter 1 (Slc17a7)
[13] = protein Q3UN02 Lysocardiolipin acyltransferase 1 (Lclat1)
[14] = protein Q4W8U9 Scg2 protein (Scg2)
[15] = protein Q5IRJ6 Zinc transporter 9 (Slc30a9)
[16] = protein Q5U458 DnaJ homolog subfamily C member 11 (Dnajc11)
[17] = protein Q7TME0 Lipid phosphate phosphatase-related protein type 4 (Lppr4)
[18] = protein Q7TQ95 Protein lunapark (Lnp)
[19] = protein Q8BFT9 Synaptic vesicle 2-related protein (Svop)
[20] = protein Q8BG51 Mitochondrial Rho GTPase 1 (Rhot1)
[21] = protein Q8BH24 Transmembrane 9 superfamily member 4 (Tm9sf4)
[22] = protein Q8BH66 Atlastin-1 (Atl1)
[23] = protein Q8BHE3 Caytaxin (Atcay)
[24] = protein Q8BUN9 Protein Slc24a2 (Slc24a2)
[25] = protein Q8BW75 Amine oxidase [flavin-containing] B (Maob)
[26] = protein Q8CGK7 Guanine nucleotide-binding protein G(olf) subunit alpha (Gnal)
[27] = protein Q8K0T0 Reticulon-1 (Rtn1)
[28] = protein Q8VCX5 Calcium uptake protein 1, mitochondrial (Micu1)
[29] = protein Q9CPQ3 Mitochondrial import receptor subunit TOM22 homolog (Tomm22)
[30] = protein Q9D6J5 NADH dehydrogenase [ubiquinone] 1 beta subcomplex subunit 8, mitochondrial (Ndufb8)
[31] = protein Q9D328 Transmembrane protein 35 (Tmem35)
[32] = protein Q9ERS2 NADH dehydrogenase [ubiquinone] 1 alpha subcomplex subunit 13 (Ndufa13)
[33] = protein Q9ESW4 Acylglycerol kinase, mitochondrial (Agk)
[34] = protein Q9JIG8 PRA1 family protein 2 (Praf2)
[35] = protein Q9QXV0 ProSAAS (Pcsk1n)
[36] = protein Q9WU79 Proline dehydrogenase 1, mitochondrial (Prodh)
[37] = protein Q9Z0V2 Potassium voltage-gated channel subfamily D member 2 (Kcnd2)
[38] = protein Q67BT3 Solute carrier family 13 member 5 (Slc13a5)
[39] = protein Q80X80 C2 domain-containing protein 2-like (C2cd2l)
[40] = protein Q91YQ5 Dolichyl-diphosphooligosaccharide--protein glycosyltransferase subunit 1 (Rpn1)
[41] = protein Q99JB2 Stomatin-like protein 2, mitochondrial (Stoml2)
[42] = protein Q99PU5 Long-chain-fatty-acid--CoA ligase ACSBG1 (Acsbg1)
[43] = protein Q925I1 ATPase family AAA domain-containing protein 3 (Atad3)

Structure (SMILES): C#CCOCc1ccc(C2(C(F)(F)F)N=N2)cc1O [AziPm-click (1), 2-((prop-2-yn-1-yloxy)methyl)-5-(3-(trifluoromethyl)-3H-diazirin-3-yl)phenol]
- TMT Ratio Mean 'UV/ No UV' (protein O35963 Ras-related protein Rab-33B (Rab33b)): 16.23
- Log2( Mean 'UV/ No UV') (protein P23819-4 Isoform 4 of Glutamate receptor 2 (Gria2)): 3.65
- Log2( Mean 'UV/ No UV') [1]: 4.09
- TMT Ratio Mean 'UV/ No UV' [1]: 17.05
- Log2( Mean 'UV/ No UV') [2]: 4.14
- TMT Ratio Mean 'UV/ No UV' [2]: 17.58
- Log2( Mean 'UV/ No UV') (protein P35564 Calnexin (Canx)): 4.47
- TMT Ratio Mean 'UV/ No UV' (protein P35564 Calnexin (Canx)): 22.10
- Log2( Mean 'UV/ No UV') [3]: 4.34
- TMT Ratio Mean 'UV/ No UV' [3]: 20.23
- Log2( Mean 'UV/ No UV') [4]: 4.63
- TMT Ratio Mean 'UV/ No UV' [4]: 24.73
- Log2( Mean 'UV/ No UV') [5]: 3.54
- TMT Ratio Mean 'UV/ No UV' [5]: 11.59
- Log2( Mean 'UV/ No UV') [6]: 4.59
- TMT Ratio Mean 'UV/ No UV' [6]: 24.11
- Log2( Mean 'UV/ No UV') [7]: 4.57
- TMT Ratio Mean 'UV/ No UV' [7]: 23.77
- Log2( Mean 'UV/ No UV') [8]: 4.37
- TMT Ratio Mean 'UV/ No UV' [8]: 20.71
- Log2( Mean 'UV/ No UV') [9]: 4.63
- TMT Ratio Mean 'UV/ No UV' [9]: 24.78
- Log2( Mean 'UV/ No UV') [10]: 3.65
- TMT Ratio Mean 'UV/ No UV' [10]: 12.55
- Log2( Mean 'UV/ No UV') (protein P70429-2 Isoform 1 of Ena/VASP-like protein (Evl)): 4.31
- Log2( Mean 'UV/ No UV') (protein P97300-3 Isoform 3 of Neuroplastin (Nptn)): 3.67
- Log2( Mean 'UV/ No UV') [11]: 3.68
- TMT Ratio Mean 'UV/ No UV' [11]: 12.83
- Log2( Mean 'UV/ No UV') [12]: 4.04
- TMT Ratio Mean 'UV/ No UV' [12]: 16.48
- Log2( Mean 'UV/ No UV') [13]: 4.50
- TMT Ratio Mean 'UV/ No UV' [13]: 22.69
- Log2( Mean 'UV/ No UV') [14]: 4.03
- TMT Ratio Mean 'UV/ No UV' [14]: 16.35
- Log2( Mean 'UV/ No UV') [15]: 4.34
- TMT Ratio Mean 'UV/ No UV' [15]: 20.22
- Log2( Mean 'UV/ No UV') [16]: 3.93
- TMT Ratio Mean 'UV/ No UV' [16]: 15.27
- Log2( Mean 'UV/ No UV') [17]: 3.46
- TMT Ratio Mean 'UV/ No UV' [17]: 10.98
- Log2( Mean 'UV/ No UV') [18]: 3.56
- TMT Ratio Mean 'UV/ No UV' [18]: 11.82
- Log2( Mean 'UV/ No UV') [19]: 3.80
- TMT Ratio Mean 'UV/ No UV' [19]: 13.90
- Log2( Mean 'UV/ No UV') [20]: 3.48
- TMT Ratio Mean 'UV/ No UV' [20]: 11.17
- Log2( Mean 'UV/ No UV') [21]: 4.09
- TMT Ratio Mean 'UV/ No UV' [21]: 16.97
- Log2( Mean 'UV/ No UV') [22]: 4.36
- TMT Ratio Mean 'UV/ No UV' [22]: 20.55
- Log2( Mean 'UV/ No UV') [23]: 4.15
- TMT Ratio Mean 'UV/ No UV' [23]: 17.78
- Log2( Mean 'UV/ No UV') (protein Q8BJU0-2 Isoform 2 of Small glutamine-rich tetratricopeptide repeat-containing protein alpha (Sgta)): 3.93
- Log2( Mean 'UV/ No UV') [24]: 4.26
- TMT Ratio Mean 'UV/ No UV' [24]: 19.15
- Log2( Mean 'UV/ No UV') [25]: 4.59
- TMT Ratio Mean 'UV/ No UV' [25]: 24.13
- Log2( Mean 'UV/ No UV') [26]: 3.86
- TMT Ratio Mean 'UV/ No UV' [26]: 14.56
- Log2( Mean 'UV/ No UV') [27]: 3.46
- TMT Ratio Mean 'UV/ No UV' [27]: 10.99
- Log2( Mean 'UV/ No UV') [28]: 4.33
- TMT Ratio Mean 'UV/ No UV' [28]: 20.04
- Log2( Mean 'UV/ No UV') [29]: 4.38
- TMT Ratio Mean 'UV/ No UV' [29]: 20.75
- Log2( Mean 'UV/ No UV') [30]: 4.29
- TMT Ratio Mean 'UV/ No UV' [30]: 19.55
- Log2( Mean 'UV/ No UV') [31]: 4.09
- TMT Ratio Mean 'UV/ No UV' [31]: 16.99
- Log2( Mean 'UV/ No UV') (protein Q9DBF1-2 Isoform 2 of Alpha-aminoadipic semialdehyde dehydrogenase (Aldh7a1)): 3.89
- Log2( Mean 'UV/ No UV') (protein Q9EPJ9-2 Isoform 2 of ADP-ribosylation factor GTPase-activating protein 1 (Arfgap1)): 3.44
- Log2( Mean 'UV/ No UV') [32]: 4.27
- TMT Ratio Mean 'UV/ No UV' [32]: 19.26
- Log2( Mean 'UV/ No UV') [33]: 4.32
- TMT Ratio Mean 'UV/ No UV' [33]: 20.02
- Log2( Mean 'UV/ No UV') [34]: 3.94
- TMT Ratio Mean 'UV/ No UV' [34]: 15.37
- Log2( Mean 'UV/ No UV') [35]: 3.87
- TMT Ratio Mean 'UV/ No UV' [35]: 14.66
- Log2( Mean 'UV/ No UV') [36]: 4.21
- TMT Ratio Mean 'UV/ No UV' [36]: 18.52
- Log2( Mean 'UV/ No UV') [37]: 3.71
- TMT Ratio Mean 'UV/ No UV' [37]: 13.09
- Log2( Mean 'UV/ No UV') [38]: 3.47
- TMT Ratio Mean 'UV/ No UV' [38]: 11.09
- Log2( Mean 'UV/ No UV') [39]: 4.07
- TMT Ratio Mean 'UV/ No UV' [39]: 16.73
- Log2( Mean 'UV/ No UV') [40]: 3.76
- TMT Ratio Mean 'UV/ No UV' [40]: 13.55
- Log2( Mean 'UV/ No UV') [41]: 4.08
- TMT Ratio Mean 'UV/ No UV' [41]: 16.91
- Log2( Mean 'UV/ No UV') [42]: 4.16
- TMT Ratio Mean 'UV/ No UV' [42]: 17.83
- Log2( Mean 'UV/ No UV') [43]: 4.41
- TMT Ratio Mean 'UV/ No UV' [43]: 21.20
